Like-named read-outs stand apart in the source and are kept apart here.
Experiment: Plasma kinetic study of colchicine with and without Schisandrin A
Format: in vivo
Conditions: male, Sprague Dawley, rat, po, 3 mg/kg; for AUC(0-t): read-out: AUC0→t of colchicine; for AUC(0-inf): read-out: AUC0→∞ of colchicine; for MRT last: read-out: MRT0→t of colchicine; for MRT inf: read-out: MRT0→∞ of colchicine; for half-life: read-out: T1/2 of colchicine (converted)
Procedure: 42 Male Sprague Dawley rats (weight, 170-210 g) were maintained on a 12-h light/dark cycle with free access to water and lab chow for 10-14 h prior to the experiment. Rats were randomly divided into 7 groups (n=6 each) and groups 2-7 received 0 mg/kg, 6.3 mg/kg, and 12.6 mg/kg, 25.2 mg/kg, 50.4 mg/kg and 63.0 mg/kg of Schisandrin A in 1% CMC-Na (300-800 cps) via oral administration, respectively. After 5 minutes, all the groups received 3.0 mg/kg of colchicine in a solution of 2% DMSO-98% sterile water via oral administration.
After colchicine treatment, blood samples were collected from individual rat at 5 min, 15 min, 0.5 h, 1 h, 2 h, 4 h, 6 h, 8 h, 10 h, 24 h respectively. Plasma was separated by centrifugation at 8000 rpm for 6 minutes at 4° C. and kept at −80° C. until analysis. Plasma homogenate was injected into LC-MS/MS for analysis. Pharmacokinetic parameters of colchicine after a single oral dose of colchicine (3.0 mg/kg) in rats with and without different dose of Schisandrin A, including area under the concentration-time curve (AUC), mean residence time (MRT) and terminal elimination half-life (T1/2), Cmax, and Tmax are shown in Table 5.

[1] = Group1, rats, colchicine 3.0 mg/kg oral, no Schisandrin A dose stated
[2] = Group2, rats, Schisandrin A 0 mg/kg oral 5 min before colchicine 3.0 mg/kg oral
[3] = Group3, rats, Schisandrin A 6.3 mg/kg oral 5 min before colchicine 3.0 mg/kg oral
[4] = Group4, rats, Schisandrin A 12.6 mg/kg oral 5 min before colchicine 3.0 mg/kg oral
[5] = Group5, rats, Schisandrin A 25.2 mg/kg oral 5 min before colchicine 3.0 mg/kg oral
[6] = Group6, rats, Schisandrin A 50.4 mg/kg oral 5 min before colchicine 3.0 mg/kg oral
[7] = Group7, rats, Schisandrin A 63.0 mg/kg oral 5 min before colchicine 3.0 mg/kg oral

COc1cc2c(c(OC)c1OC)-c1ccc(OC)c(=O)cc1[C@@H](NC(C)=O)CC2 [colchicine]
Cmax [1]: 13.4 ± 4.38 ng/mL | Tmax [1]: 0.17 ± 0.09 h | AUC(0-t) [1]: 48.9 ± 14.9 ng·h/mL | AUC(0-inf) [1]: 57.5 ± 16.1 ng·h/mL | MRT last [1]: 4.54 ± 1.33 h | MRT inf [1]: 6.99 ± 1.99 h | half-life [1]: 5.2 ± 2.31 h | Cmax [2]: 10.2 ± 2.63 ng/mL | Tmax [2]: 0.22 ± 0.07 h | AUC(0-t) [2]: 32.9 ± 20.9 ng·h/mL | AUC(0-inf) [2]: 40.6 ± 22.2 ng·h/mL | MRT last [2]: 3.89 ± 1.74 h | MRT inf [2]: 6.86 ± 2.77 h | half-life [2]: 4.67 ± 2.04 h | Cmax [3]: 24.4 ± 6.12 ng/mL | Tmax [3]: 0.19 ± 0.09 h | AUC(0-t) [3]: 74.4 ± 27 ng·h/mL | AUC(0-inf) [3]: 84.5 ± 30.5 ng·h/mL | MRT last [3]: 5.04 ± 1.86 h | MRT inf [3]: 7.67 ± 3.34 h | half-life [3]: 6.12 ± 2.86 h | Cmax [4]: 25.7 ± 9.67 ng/mL | Tmax [4]: 0.19 ± 0.09 h | AUC(0-t) [4]: 71 ± 33.3 ng·h/mL | AUC(0-inf) [4]: 79.7 ± 34.9 ng·h/mL | MRT last [4]: 3.95 ± 1.2 h | MRT inf [4]: 6.54 ± 3.18 h | half-life [4]: 6.56 ± 4.7 h | Cmax [5]: 29.3 ± 11.9 ng/mL | Tmax [5]: 0.11 ± 0.07 h | AUC(0-t) [5]: 75.5 ± 27.6 ng·h/mL | AUC(0-inf) [5]: 86.8 ± 36.2 ng·h/mL | MRT last [5]: 4.04 ± 1.44 h | MRT inf [5]: 7.29 ± 4.72 h | half-life [5]: 7.53 ± 6.49 h | Cmax [6]: 48.2 ± 12.4 ng/mL | Tmax [6]: 0.31 ± 0.16 h | AUC(0-t) [6]: 151 ± 41.4 ng·h/mL | AUC(0-inf) [6]: 186 ± 70.5 ng·h/mL | MRT last [6]: 5.1 ± 0.77 h | MRT inf [6]: 11.7 ± 6.87 h | half-life [6]: 13 ± 6.29 h | Cmax [7]: 33.8 ± 14 ng/mL | Tmax [7]: 0.26 ± 0.13 h | AUC(0-t) [7]: 84.8 ± 39.3 ng·h/mL | AUC(0-inf) [7]: 98.7 ± 41.9 ng·h/mL | MRT last [7]: 4.09 ± 1.76 h | MRT inf [7]: 7.52 ± 3.62 h | half-life [7]: 7.59 ± 3.65 h
